Experimental data taken from patent US10138275B2, “Crystalline powder of cyclic peptide compound, preparation method for same, and uses thereof” (SHANGHAI TECHWELL BIOPHARMACEUTICAL CO., LTD, priority 2014, dated 2018).
Starred links: 1 amine or outer side, 2 acyl side, 3 side chain; linkers in the order of their positions; H or OH if unused. Positions of bridges follow the written chain, without caps; N, C: chain ends. Non-standard residues stand in square brackets, D forms with d. Residues, ends and D or L forms follow the SMILES beside them. *: point of attachment. hTyr(3S-OH,4S-OH,3'-OSO3H) = N[C@H](C(=O)O)[C@H](O)[C@@H](O)c1ccc(O)c(OS(=O)(=O)O)c1; Orn(4R-OH,5R-OH) = O=C([C@H](C[C@@H](O)[C@@H](O)N[*:3])N[*:1])[*:2]; Pro(3S-OH,4S-Me) = C[C@H]1CN[C@H](C(=O)O)[C@H]1O; X1 = CCCCCOc1ccc(-c2cc(-c3ccc(C(=O)*)cc3)no2)cc1; Gln(3R-OH) = NC(=O)C[C@@H](O)[C@H](N)C(=O)O; Hyp = O=C(O)[C@@H]1C[C@@H](O)CN1

Assay: Ratio of dry weight to wet weight (Dry/Wet) of filtered solids
Assay type: physicochemical
Details: wet solids weighed after filtration, before drying
From the text: As used herein, the term “Dry/Wet” and “ratio of dry weight to wet weight” can be used interchangeably, both of which refer to the ratio of the weight of a compound without solvent(s) to the weight of the compound with solvent(s). In the present invention, wet weight of crystals is obtained by filtering the crystallized solids until no noticeable droplet outflows and weighing the solids.

| Compound | ratio of dry weight to wet weight (Dry/Wet) |
| --- | --- |
| CCCCCOc1ccc(-c2cc(-c3ccc(C(=O)N[C@H]4C[C@@H](O)[C@@H](O)NC(=O)[C@@H]5[C@@H](O)[C@@H](C)CN5C(=O)[C@H]([C@H](O)CC(N)=O)NC(=O)[C@H]([C@H](O)[C@@H](O)c5ccc(O)c(OS(=O)(=O)[O-])c5)NC(=O)[C@@H]5C[C@@H](O)CN5C(=O)[C@H]([C@@H](C)O)NC4=O)cc3)no2)cc1.[Na+] [Comparative Example 12] (X1-[Orn(4R-OH,5R-OH)]T[Hyp][hTyr(3S-OH,4S-OH,3'-OSO3H)][Gln(3R-OH)][Pro(3S-OH,4S-Me)]; lactam 1-C) | 0.18 |
| CCCCCOc1ccc(-c2cc(-c3ccc(C(=O)N[C@H]4C[C@@H](O)[C@@H](O)NC(=O)[C@@H]5[C@@H](O)[C@@H](C)CN5C(=O)[C@H]([C@H](O)CC(N)=O)NC(=O)[C@H]([C@H](O)[C@@H](O)c5ccc(O)c(OS(=O)(=O)[O-])c5)NC(=O)[C@@H]5C[C@@H](O)CN5C(=O)[C@H]([C@@H](C)O)NC4=O)cc3)no2)cc1.[Na+] [Comparative Example 14] (X1-[Orn(4R-OH,5R-OH)]T[Hyp][hTyr(3S-OH,4S-OH,3'-OSO3H)][Gln(3R-OH)][Pro(3S-OH,4S-Me)]; lactam 1-C) | 0.19 |
| CCCCCOc1ccc(-c2cc(-c3ccc(C(=O)N[C@H]4C[C@@H](O)[C@@H](O)NC(=O)[C@@H]5[C@@H](O)[C@@H](C)CN5C(=O)[C@H]([C@H](O)CC(N)=O)NC(=O)[C@H]([C@H](O)[C@@H](O)c5ccc(O)c(OS(=O)(=O)[O-])c5)NC(=O)[C@@H]5C[C@@H](O)CN5C(=O)[C@H]([C@@H](C)O)NC4=O)cc3)no2)cc1.[Na+] [Comparative Example 10] (X1-[Orn(4R-OH,5R-OH)]T[Hyp][hTyr(3S-OH,4S-OH,3'-OSO3H)][Gln(3R-OH)][Pro(3S-OH,4S-Me)]; lactam 1-C) | 0.23 |
| CCCCCOc1ccc(-c2cc(-c3ccc(C(=O)N[C@H]4C[C@@H](O)[C@@H](O)NC(=O)[C@@H]5[C@@H](O)[C@@H](C)CN5C(=O)[C@H]([C@H](O)CC(N)=O)NC(=O)[C@H]([C@H](O)[C@@H](O)c5ccc(O)c(OS(=O)(=O)[O-])c5)NC(=O)[C@@H]5C[C@@H](O)CN5C(=O)[C@H]([C@@H](C)O)NC4=O)cc3)no2)cc1.[Na+] [Comparative Example 6] (X1-[Orn(4R-OH,5R-OH)]T[Hyp][hTyr(3S-OH,4S-OH,3'-OSO3H)][Gln(3R-OH)][Pro(3S-OH,4S-Me)]; lactam 1-C) | 0.21 |
| CCCCCOc1ccc(-c2cc(-c3ccc(C(=O)N[C@H]4C[C@@H](O)[C@@H](O)NC(=O)[C@@H]5[C@@H](O)[C@@H](C)CN5C(=O)[C@H]([C@H](O)CC(N)=O)NC(=O)[C@H]([C@H](O)[C@@H](O)c5ccc(O)c(OS(=O)(=O)[O-])c5)NC(=O)[C@@H]5C[C@@H](O)CN5C(=O)[C@H]([C@@H](C)O)NC4=O)cc3)no2)cc1.[Na+] [Comparative Example 15] (X1-[Orn(4R-OH,5R-OH)]T[Hyp][hTyr(3S-OH,4S-OH,3'-OSO3H)][Gln(3R-OH)][Pro(3S-OH,4S-Me)]; lactam 1-C) | 0.15 |
| CCCCCOc1ccc(-c2cc(-c3ccc(C(=O)N[C@H]4C[C@@H](O)[C@@H](O)NC(=O)[C@@H]5[C@@H](O)[C@@H](C)CN5C(=O)[C@H]([C@H](O)CC(N)=O)NC(=O)[C@H]([C@H](O)[C@@H](O)c5ccc(O)c(OS(=O)(=O)[O-])c5)NC(=O)[C@@H]5C[C@@H](O)CN5C(=O)[C@H]([C@@H](C)O)NC4=O)cc3)no2)cc1.[Na+] [Comparative Example 5] (X1-[Orn(4R-OH,5R-OH)]T[Hyp][hTyr(3S-OH,4S-OH,3'-OSO3H)][Gln(3R-OH)][Pro(3S-OH,4S-Me)]; lactam 1-C) | 0.18 |
| CCCCCOc1ccc(-c2cc(-c3ccc(C(=O)N[C@H]4C[C@@H](O)[C@@H](O)NC(=O)[C@@H]5[C@@H](O)[C@@H](C)CN5C(=O)[C@H]([C@H](O)CC(N)=O)NC(=O)[C@H]([C@H](O)[C@@H](O)c5ccc(O)c(OS(=O)(=O)[O-])c5)NC(=O)[C@@H]5C[C@@H](O)CN5C(=O)[C@H]([C@@H](C)O)NC4=O)cc3)no2)cc1.[Na+] [Comparative Example 11] (X1-[Orn(4R-OH,5R-OH)]T[Hyp][hTyr(3S-OH,4S-OH,3'-OSO3H)][Gln(3R-OH)][Pro(3S-OH,4S-Me)]; lactam 1-C) | 0.11 |
| CCCCCOc1ccc(-c2cc(-c3ccc(C(=O)N[C@H]4C[C@@H](O)[C@@H](O)NC(=O)[C@@H]5[C@@H](O)[C@@H](C)CN5C(=O)[C@H]([C@H](O)CC(N)=O)NC(=O)[C@H]([C@H](O)[C@@H](O)c5ccc(O)c(OS(=O)(=O)[O-])c5)NC(=O)[C@@H]5C[C@@H](O)CN5C(=O)[C@H]([C@@H](C)O)NC4=O)cc3)no2)cc1.[Na+] [Comparative Example 8] (X1-[Orn(4R-OH,5R-OH)]T[Hyp][hTyr(3S-OH,4S-OH,3'-OSO3H)][Gln(3R-OH)][Pro(3S-OH,4S-Me)]; lactam 1-C) | 0.15 |
| CCCCCOc1ccc(-c2cc(-c3ccc(C(=O)N[C@H]4C[C@@H](O)[C@@H](O)NC(=O)[C@@H]5[C@@H](O)[C@@H](C)CN5C(=O)[C@H]([C@H](O)CC(N)=O)NC(=O)[C@H]([C@H](O)[C@@H](O)c5ccc(O)c(OS(=O)(=O)[O-])c5)NC(=O)[C@@H]5C[C@@H](O)CN5C(=O)[C@H]([C@@H](C)O)NC4=O)cc3)no2)cc1.[Na+] [Comparative Example 7] (X1-[Orn(4R-OH,5R-OH)]T[Hyp][hTyr(3S-OH,4S-OH,3'-OSO3H)][Gln(3R-OH)][Pro(3S-OH,4S-Me)]; lactam 1-C) | 0.2 |
| CCCCCOc1ccc(-c2cc(-c3ccc(C(=O)N[C@H]4C[C@@H](O)[C@@H](O)NC(=O)[C@@H]5[C@@H](O)[C@@H](C)CN5C(=O)[C@H]([C@H](O)CC(N)=O)NC(=O)[C@H]([C@H](O)[C@@H](O)c5ccc(O)c(OS(=O)(=O)[O-])c5)NC(=O)[C@@H]5C[C@@H](O)CN5C(=O)[C@H]([C@@H](C)O)NC4=O)cc3)no2)cc1.[Na+] [Comparative Example 9] (X1-[Orn(4R-OH,5R-OH)]T[Hyp][hTyr(3S-OH,4S-OH,3'-OSO3H)][Gln(3R-OH)][Pro(3S-OH,4S-Me)]; lactam 1-C) | 0.09 |
| CCCCCOc1ccc(-c2cc(-c3ccc(C(=O)N[C@H]4C[C@@H](O)[C@@H](O)NC(=O)[C@@H]5[C@@H](O)[C@@H](C)CN5C(=O)[C@H]([C@H](O)CC(N)=O)NC(=O)[C@H]([C@H](O)[C@@H](O)c5ccc(O)c(OS(=O)(=O)[O-])c5)NC(=O)[C@@H]5C[C@@H](O)CN5C(=O)[C@H]([C@@H](C)O)NC4=O)cc3)no2)cc1.[Na+] [Comparative Example 4] (X1-[Orn(4R-OH,5R-OH)]T[Hyp][hTyr(3S-OH,4S-OH,3'-OSO3H)][Gln(3R-OH)][Pro(3S-OH,4S-Me)]; lactam 1-C) | 0.19 |
| CCCCCOc1ccc(-c2cc(-c3ccc(C(=O)N[C@H]4C[C@@H](O)[C@@H](O)NC(=O)[C@@H]5[C@@H](O)[C@@H](C)CN5C(=O)[C@H]([C@H](O)CC(N)=O)NC(=O)[C@H]([C@H](O)[C@@H](O)c5ccc(O)c(OS(=O)(=O)[O-])c5)NC(=O)[C@@H]5C[C@@H](O)CN5C(=O)[C@H]([C@@H](C)O)NC4=O)cc3)no2)cc1.[Na+] [Comparative Example 13] (X1-[Orn(4R-OH,5R-OH)]T[Hyp][hTyr(3S-OH,4S-OH,3'-OSO3H)][Gln(3R-OH)][Pro(3S-OH,4S-Me)]; lactam 1-C) | 0.2 |
